The results in this text go back to article PMC3837394 (Advances in Protein Chemistry and Structural Biology, 2012).

Holding throughout (experiment): colorimetric ELISA-like DNMT activity assay
Common to all, as to type: biochemical
(ELISA stands for enzyme-linked immunosorbent assay.)

For assay [1], the target named is T1, full-length human DNMT1 (Homo sapiens, UniProt P26358). The settings on record: read-out: % inhibition at 100 μM.
For the next assay, the target named is murine Dnmt3a (Mus musculus, UniProt O88508).
Assay [2] concerns the target T1, full-length human DNMT1.

Structures are written as SMILES.

T1 sequence (P26358 whole entry): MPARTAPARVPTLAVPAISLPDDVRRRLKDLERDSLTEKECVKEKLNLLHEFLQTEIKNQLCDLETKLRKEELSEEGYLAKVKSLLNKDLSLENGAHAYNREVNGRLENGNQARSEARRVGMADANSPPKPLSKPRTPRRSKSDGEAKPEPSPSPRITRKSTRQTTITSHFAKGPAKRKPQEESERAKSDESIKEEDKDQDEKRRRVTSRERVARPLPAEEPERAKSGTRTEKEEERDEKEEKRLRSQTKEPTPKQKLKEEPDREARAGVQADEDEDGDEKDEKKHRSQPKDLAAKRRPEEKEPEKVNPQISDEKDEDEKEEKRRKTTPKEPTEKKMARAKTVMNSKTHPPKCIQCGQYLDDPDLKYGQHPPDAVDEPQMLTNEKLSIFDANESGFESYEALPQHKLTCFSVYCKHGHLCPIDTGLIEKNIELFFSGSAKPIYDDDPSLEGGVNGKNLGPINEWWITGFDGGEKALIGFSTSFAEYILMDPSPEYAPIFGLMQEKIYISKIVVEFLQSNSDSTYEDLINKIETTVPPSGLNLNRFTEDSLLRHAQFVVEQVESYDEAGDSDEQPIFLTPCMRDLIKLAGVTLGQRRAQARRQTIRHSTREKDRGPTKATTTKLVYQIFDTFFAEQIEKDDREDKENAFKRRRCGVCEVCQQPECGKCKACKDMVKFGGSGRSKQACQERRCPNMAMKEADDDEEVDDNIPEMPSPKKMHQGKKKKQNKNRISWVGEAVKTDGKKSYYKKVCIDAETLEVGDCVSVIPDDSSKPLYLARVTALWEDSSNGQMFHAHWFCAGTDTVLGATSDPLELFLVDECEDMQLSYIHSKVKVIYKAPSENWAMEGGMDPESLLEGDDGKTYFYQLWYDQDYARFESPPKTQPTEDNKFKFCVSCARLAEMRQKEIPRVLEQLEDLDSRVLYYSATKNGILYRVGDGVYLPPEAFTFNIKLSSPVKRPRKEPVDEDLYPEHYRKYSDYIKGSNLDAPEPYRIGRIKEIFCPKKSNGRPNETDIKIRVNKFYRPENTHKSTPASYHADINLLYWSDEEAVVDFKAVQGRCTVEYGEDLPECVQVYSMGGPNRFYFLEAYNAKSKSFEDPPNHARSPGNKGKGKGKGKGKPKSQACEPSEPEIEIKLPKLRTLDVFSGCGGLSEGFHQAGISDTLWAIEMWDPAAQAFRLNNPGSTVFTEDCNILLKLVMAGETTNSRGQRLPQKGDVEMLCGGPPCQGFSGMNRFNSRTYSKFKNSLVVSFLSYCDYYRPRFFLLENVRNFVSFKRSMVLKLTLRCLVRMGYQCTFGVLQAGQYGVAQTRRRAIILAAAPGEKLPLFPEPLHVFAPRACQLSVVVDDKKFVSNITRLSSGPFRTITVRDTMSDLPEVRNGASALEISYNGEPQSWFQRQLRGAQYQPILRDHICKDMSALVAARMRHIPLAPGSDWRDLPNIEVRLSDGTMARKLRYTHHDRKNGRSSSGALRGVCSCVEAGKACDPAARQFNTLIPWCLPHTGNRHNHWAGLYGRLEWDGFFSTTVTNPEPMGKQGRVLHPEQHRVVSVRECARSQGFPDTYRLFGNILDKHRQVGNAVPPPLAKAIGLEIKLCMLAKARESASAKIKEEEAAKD

As a reminder, the inhibition is the relative decrease from the control value, in per cent. For the compound `O=C(O)[C@H](Cc1c[nH]c2ccccc12)N1C(=O)c2ccccc2C1=O` [RG108], the inhibition at 100 µM on full-length human DNMT1 [1] stood at 11%.
As a reminder, the IC50 is the concentration that gives 50% inhibition. In the case of `O=C(O)C1=CC(=C(c2ccc(O)c(C(=O)O)c2)c2ccc(O)c(C(=O)O)c2)C=CC1=O` [aurintricarboxylic acid], the results for the IC50 on murine Dnmt3a and on full-length human DNMT1 [2] were 1400 nM and 680 nM, respectively.
On full-length human DNMT1 [2], `O=C(O[C@@H]1Cc2c(O)cc(O)cc2O[C@@H]1c1cc(O)c(O)c(O)c1)c1cc(O)c(O)c(O)c1` [EGCG] gave an IC50 of 700 nM.
